Common to all, as to assay type: in vivo, C57BL/6 mice
The subject of series [1] is B16F10 melanoma cell line. As to the kind of experiment: Test of synergistic combination of drugs in mouse model. The note with it: 11 days after drug administration, TEW-7197 10 mg/kg oral, antibody about 100 μg per mouse. As to the method:
In detail, as described in 1., C57BL/6 mice were prepared, and 1×10^4 cells of B16F10 melanoma cell line (ATCC, CRL-6475™) were injected to each of the mice. When the average tumor size of each group reached about 26.0 mm^3, drug administration was carried out.
As described in 1., TEW-7197, anti-CTLA4 antibody, anti-PD-L1 antibody, anti-PD1 antibody, human IgG, and hamster IgG were prepared as drugs.
The prepared mice were orally administered with a TEW-7197 solution at a dose of 10 mg/weight kg once a day for 5 consecutive days of a week. Then, during the last 2 days, the TEW-7197 solution was not administered. These mice were administered with antibody at a dose of about 100 μg per mouse once every 2 days by abdominal injection. In a negative control group, a vehicle was administered for TEW-7197, and human IgG or hamster IgG was administered for antibody. 11 days after the drug administration, tumor volume was measured with calipers and calculated as described in 3.

The subject of series [2] is B16F10 melanoma cell line. The experiment in a line: Test of tumor inhibitory effects of drug in mouse model. Further details: tumor inhibition rate (vs. vehicle, human IgG or hamster IgG administered group): concentration or dose not given beside the values. The note with it: for Tumor volume change (Δt = Vt − V0): TEW-7197 25 mg/kg oral, antibody about 100 μg per mouse. As to the method: (§1) In order to validate in vivo anti-tumor effects, female 5 week-old SPF C57BL/6 mice were purchased from Koatech Co. (South Korea). These mice were maintained in a room controlled at a temperature of about 22° C. while freely supplying food and water to them. 1 week after, 5×10^4 cells of B16F10 melanoma cell line (ATCC, CRL-6475™) were injected to these 6 week-old mice by subcutaneous injection. 8 week-old mice, 2 weeks after the injection of melanoma cell line, were used in the experiment.
(§2) As a carrier, 7 ml of 37% (v/v) […], 2.0 g of NaCl, 3.2 g of pepsin (Sigma-Aldrich), and distilled water were mixed together to prepare 1,000 ml of artificial gastric fluid. As an administration drug, N-((4-([1,2,4]triazolo[1,5-a]pyridin-6-yl)-5-(6-methylpyridin-2-yl)-1H-imidazol-2-yl)methyl)-2-fluoroaniline (hereinafter, referred to as “TEW-7197”) (Syngene, India) was dissolved in the carrier to prepare 2.5 mg/ml of TEW-7197 solution.
(§3) As for another administration drug, anti-PD-L1 monoclonal antibody (prepared by requesting to ANR therapeutics co., Ltd., host cell: HEK293F), anti-PD1 monoclonal hamster antibody (BioXCell, Cat. No. BE0033-2), anti-CTLA4 monoclonal hamster antibody (BioXCell, Cat. No. BE0131), human immunoglobulin G (IgG) (Thermo Scientific, Cat. No. 31154), and monoclonal hamster IgG (BioXCell, Cat. No. BE0091) were prepared.
(§4) The mouse models prepared in 1. were orally administered with 2.5 mg/ml of a TEW-7197 solution at a dose of 25 mg/weight kg once a day for 5 consecutive days of a week. Then, during the last 2 days, the TEW-7197 solution was not administered to them. These mice were administered with antibody at a dose of about 100 μg per mouse once every 2 days by abdominal injection. As for a control group for TEW-7197, a carrier administered group was used. As for a control group for antibody, a human IgG administered group and a hamster IgG administered group were used.
As described in 2., drug administration was carried out, and then 20 minutes after the last dose of the drug, mice were sacrificed, tumors were resected from the mice. Tumor volume was measured with calipers and calculated using Equation 1: Tumor volume (mm^3)=[length (mm)×width (mm)×height (mm)]/2 [Equation 1]
The difference between the initial tumor volume (V0) in the start date and the tumor volume after drug administration (Vt) was calculated, to calculate the change in tumor volume (Δt=Vt−V0). From the calculated tumor volume, the tumor inhibition rate (%) by drug administration was calculated.

Series [3] can be described thus: Measurement of weight caused by administration drug in melanoma mouse model. As to the method:
as §1, §2, §3, §4
From the day that the drugs were administered (start date) to the 11th day, the weights of mice were measured every 2 days.

SMILES strings stand for the structures. Marks after values point to notes of the source that are not given here.

Consider `Cc1cccc(-c2[nH]c(CNc3ccccc3F)nc2-c2ccc3ncnn3c2)n1` [TEW-7197, N-((4-([1,2,4]triazolo[1,5-a]pyridin-6-yl)-5-(6-methylpyridin-2-yl)-1H-imidazol-2-yl)methyl)-2-fluoroaniline], for which the “tumor volume decrease as compared with the negative control group” value was “about 10.1%” in series [1] (FIG. 1A (anti-CTLA4 series)), “about 9.2%” in series [1] (FIG. 1B (anti-PD-L1 series)) and “about 8.1%” in series [1] (FIG. 1C (anti-PD1 series)). Moreover, the “tumor inhibition rate (vs. vehicle, human IgG or hamster IgG administered group)” value in series [2] (2 days after administration) was 21.3%; in series [2] (4 days after administration) it was 21.7%; in series [2] (6 days after administration), 23.0%; in series [2] (8 days after administration) it was 22.9%; in series [2] (11 days after administration), 20.9%. The “Tumor volume change (Δt = Vt − V0)” value was 30.4 ± 6.6 mm^3 in series [2] (2 days after administration); 100.4 ± 11.4* mm^3 in series [2] (4 days after administration); 174.5 ± 29.6** mm^3 in series [2] (6 days after administration); 455.3 ± 67.1* mm^3 in series [2] (8 days after administration); 1084.0 ± 179.5* mm^3 in series [2] (11 days after administration); 0.0 ± 0.0 mm^3 in series [2] (Start date). Moreover, the “weight change of mice (average (%) ± standard deviation)” value in series [3] (2 days after administration, TEW-7197 25 mg/kg oral, antibody about 100 μg per mouse) came to 104.3 ± 1.2%; in series [3] (4 days after administration, TEW-7197 25 mg/kg oral, antibody about 100 μg per mouse) it was 106.7 ± 3.5%; in series [3] (6 days after administration, TEW-7197 25 mg/kg oral, antibody about 100 μg per mouse) it was 108.7 ± 4.5%; in series [3] (8 days after administration, TEW-7197 25 mg/kg oral, antibody about 100 μg per mouse), 115.8 ± 6.4%; in series [3] (11 days after administration, TEW-7197 25 mg/kg oral, antibody about 100 μg per mouse), 125.0 ± 6.5%; in series [3] (Start date, TEW-7197 25 mg/kg oral once a day 5 days a week, antibody about 100 μg per mouse every 2 days abdominal injection) it was 100.0 ± 0.0%. Moreover, the “weight change caused by drug (in words)” value in series [3] (up to 11th day, Table 2) is reported as “barely had significant weight change”.

The record behind these values is patent publication US10632110B2, “Pharmaceutical composition for preventing or treating cancer and method using thereof” (MEDPACTO INC., priority 2016, dated 2020).
